IC50 data for 7 compounds are collected here from patent US20230406853A1, “COVALENT CDK2-BINDING COMPOUNDS FOR THERAPEUTIC PURPOSES” (Umbra Therapeutics, Inc., priority 2021, published 2023).

pIC50: −log10 of the molar value.

This test has as its target CycE1-CDK2 (Homo sapiens, UniProt P24941). Put plainly: Cdk2 Enzymatic TR-FRET Assay. Format: biochemical. Particulars: CDK2/CycE 5 nM, ATP 100 μM, 60 minutes pre-incubation with compound; read-out: CDK2 Kinase. From the text:
A TR-FRET system was used to detect CycE1-CDK2 kinase activity. The assay used a Europium-labeled anti-phospho-Ser/Thr antibody and ULight™-labeled peptide substrate (eIF4E-binding protein 1). When CycE1-CDK2 phosphorylates the peptide the phosphorylated Thr is recognized by the Europium-labeled anti-phospho-Ser/Thr antibody. Upon excitation of the Europium donor fluorophore at 337 nm, energy is transferred to the ULight™ acceptor dye on the substrate, resulting in the emission of light at 665 nm. The fluorescent signal is proportional to the level of ULight™ peptide phosphorylation and to the kinase activity.
The stock solution was prepared as follows: • 1× Reaction buffer: 50 mM HEPES pH 7.5, 10 mM MgCl2, 0.5 mM TCEP, 0.01% Tween®20, 1 mM EGTA, 0.001% fatty acid free (faf)-BSA; • 1× Detection buffer: equilibrate the Detection buffer at RT for at least 20 minutes then dilute 10-fold the stock in water; • 4×ENZYME mix: CDK2/CycE enzyme (5 nM final concentration in kinase reaction) in 1× Reaction buffer; • 4×SUBSTRATE mix: 4E-BP substrate (50 nM final concentration in kinase reaction)+ATP (100 μM final concentration in kinase reaction) in 1× Reaction buffer • 2×STOP/DETECTION mix: EDTA (10 mM final concentration in assay)+Anti-Phosphate antibody (0.5 nM final concentration in assay) in 1× Detection buffer • Neutral Control: Assay with no inhibition (MAX activity) • Inhibitor Control: Assay with IC100 (1 mM) reference inhibitor JNJ7706621 (MIN activity)
The assay was assembled directly in a white, small volume, Proxiplate (PerkinElmer) as follows: • Step 1: Charge compounds=5 μL/well • Step 2: Charge kinase=2.5 μL/well→total volume 7.5 μL/well • The plate is sealed and incubated at room temperature for 60 minutes • Step 3: Substrate mix (substrate/ATP)=2.5 μL/well→total enzymatic reaction volume 10 μL/well • The plate is sealed and incubated at room temperature for 60 minutes • Step 4: Stop/Detection mix (EDTA/antibody)=10 μL/well→total volume 20 μL/well • The plate is sealed and incubated at room temperature for at least 2 hours and fluorescence signal is measured at PHERAstar FSX The reading conditions are the followings for PHERAstar FSX:
A 384-microtiter plate (MTP), containing 20 test compounds in eight-points dose response, is prepared. Test compounds dose response curves are prepared in automation in 100% DMSO in a CyBio Felix, starting from a DMSO stock solution of 10 mM. To obtain the eight-points dose-response curve, a serial dilution protocol in 100% DMSO is performed for each compound by using a 96 MTP as a support. 20 μL of the 10 mM stock solutions are transferred in row A of a 96 MTP U-bottom from column 2 to 11 for a total of 10 compounds/plate. Starting from the 10 mM stock, serial dilutions across rows, from A to B and proceeding up to H, are performed for each compound by transferring 6.3 μL of the more concentrated fluid in 13.7 μL of 100% DMSO.
In order to generate duplicate data points each well of the 96 MTP is then replicated into two wells of a 384 MTP plate for each compound and for each concentration to be tested. The 384 MTP compound plate is used as source plate in a “mother to child” process with a CyBi®-Well dispenser in which 1 μL of compound is moved into a destination plate pre-filled with 24 μL of reaction buffer, obtaining 2× concentrated compound solution.
Genedata Screener® 17.0 was used for data analysis. In the implemented workflow, the following calculations were conducted: • Calculate the Response Value (KRV) from the respective original data as follow:
HTRF Assay: Ratio=665 nm_FRET/620 nm_Ab*10000 • Calculate the % Inhibition of the compound (Inhibitory effect). KRV was normalized versus Neutral Controls and Inhibitor Controls (JNJ7706621) to obtain Activity % according to the following formula:
Activity %=−100*(x−<Neutral Control>)/(<Inhibitor Control>−<Neutral Control>) […]
For the compound `Cc1cc(S(=O)(=O)n2cnc(-c3ccccc3)n2)ccc1NC(=O)Cn1c(=O)ccc2cnc(NC3CCN(S(C)(=O)=O)CC3)nc21` [Compound 252], the pIC50 is above 5.00.
To `CS(=O)(=O)N1CCC(Nc2ncc3cc(CO)c(=O)n(CCCS(=O)(=O)n4cnc(-c5ccccc5)n4)c3n2)CC1` [Compound 290] belongs above 5.00.
As for `Cc1ncn(S(=O)(=O)c2ccc(NC(=O)Cn3c(=O)ccc4cnc(NC5CCN(S(C)(=O)=O)CC5)nc43)cc2)n1` [Compound 253], the pIC50 was above 5.00.
To `CC(=O)Nc1ncn(S(=O)(=O)c2ccc(NC(=O)Cn3c(=O)ccc4cnc(NC5CCN(S(C)(=O)=O)CC5)nc43)cc2)n1` [Compound 272] belongs above 5.00; to `CS(=O)(=O)N1CCC(Nc2ncc3ccc(=O)n(CC(=O)Nc4ccc(S(=O)(=O)n5cnc(-c6ccccc6)n5)cc4)c3n2)CC1` [Compound 229], above 5.00; to `O=c1ccc2cnc(NC3CCCCCC3)nc2n1CCCS(=O)(=O)n1cnc(C2CC2)n1` [Compound 270], above 5.00.
`CC(C(=O)Nc1ccc(S(=O)(=O)n2cncn2)cc1)n1c(=O)ccc2cnc(NC3CCN(S(C)(=O)=O)CC3)nc21` (stereo not shown) [Compound 294]: the pIC50 was above 5.00.
